ChEMBL document CHEMBL4359906, “Design and synthesis of new N-terminal fatty acid modified-antimicrobial peptide analogues with potent in vitro biological activity” (Eur J Med Chem, 2019)
Values after ≈ are worked out from the molar mass of the structure shown. Active and inactive are the calls of the source. The rule behind the calls is not given here.

Experiments:
Staphylococcus aureus [1] = assay: Antibacterial activity against Staphylococcus aureus ATCC 25923 after 18 hrs by CLSI based broth microdilution method; format: functional; settings: ATCC 25923, 18 h
Escherichia coli [2] = assay: Induction of membrane disruption in Escherichia coli ATCC 25922 assessed as degeneration in membrane at 4 times of MIC after 2 hrs by SEM analysis; format: functional, organism-based
Escherichia coli [3] = assay: Antibiofilm activity against Escherichia coli ATCC 25922 after 24 hrs by crystal violet staining based assay; format: functional, organism-based
Escherichia coli [4] = assay: Ratio of MIC for Escherichia coli ATCC 25922 preincubated for 6 hrs in presence of 10% mouse serum and measured after 18 hrs to MIC for antibacterial activity against Escherichia coli ATCC 25922 after 18 hrs; format: functional
Klebsiella pneumoniae [5] = assay: Potentiation of polymyxin B-induced antibacterial activity against Klebsiella pneumoniae ATCC 700603 assessed as FICI after 18 hrs by checker board assay; format: functional
Escherichia coli [6] = assay: Ratio of antibacterial activity against Escherichia coli ATCC 25922 in presence of NaCl to antibacterial activity against Escherichia coli ATCC 25922; format: functional
Escherichia coli [7] = assay: Potentiation of polymyxin B-induced antibacterial activity against Escherichia coli ATCC 25922 assessed as FICI after 18 hrs by checker board assay; format: functional
Staphylococcus aureus [8] = assay: Ratio of antibacterial activity against Staphylococcus aureus ATCC 25923 in presence of KCl to antibacterial activity against Staphylococcus aureus ATCC 25923; format: functional
Staphylococcus aureus [9] = assay: Antibiofilm activity against Staphylococcus aureus ATCC 25923 after 24 hrs by crystal violet staining based assay; format: functional, organism-based
Escherichia coli [10] = assay: Antibacterial activity against Escherichia coli ATCC 43837 after 18 hrs by CLSI based broth microdilution method; format: functional; settings: ATCC 43837, 18 h
Escherichia coli [11] = assay: Disruption of membrane integrity in Escherichia coli ATCC 25922 assessed as membrane damage by measuring PI fluorescence incubated for 1 hr by PI dye based flow cytometric analysis; format: functional, organism-based
Escherichia coli [12] = assay: Induction of ROS generation in Escherichia coli ATCC 25922; format: functional, organism-based
DNA = assay: Binding affinity to Escherichia coli ATCC 25922 genomic DNA after 30 mins by agarose gel electrophoresis; format: nucleic-acid assay
Staphylococcus aureus [13] = assay: Antibacterial activity against methicillin-resistant Staphylococcus aureus 936 after 18 hrs by CLSI based broth microdilution method; format: functional; settings: Staphylococcus aureus, 936, 18 h
Escherichia coli [14] = assay: Antibiofilm activity against Escherichia coli ATCC 25922 at 2 times MIC after 24 hrs by crystal violet staining based assay; format: functional, organism-based
Klebsiella pneumoniae [15] = assay: Potentiation of rifampicin-induced antibacterial activity against Klebsiella pneumoniae ATCC 700603 assessed as FICI after 18 hrs by checker board assay; format: functional
Staphylococcus aureus [16] = assay: Ratio of antibacterial activity against Staphylococcus aureus ATCC 25923 in presence of MgCl2 to antibacterial activity against Staphylococcus aureus ATCC 25923; format: functional
Escherichia coli [17] = assay: Antimicrobial activity against Escherichia coli ATCC 25922 at 1 mM preincubated for 6 hrs in presence of 2000 ug/ml trypsin and measured after 18 hrs by microplate reader analysis; format: functional, organism-based
Staphylococcus aureus [18] = assay: Ratio of antibacterial activity against Staphylococcus aureus ATCC 25923 in presence of FeCl3 to antibacterial activity against Staphylococcus aureus ATCC 25923; format: functional
Escherichia coli [19] = assay: Induction of membrane disruption in Escherichia coli ATCC 25922 assessed as corrugated membrane surface at 4 times of MIC after 2 hrs by SEM analysis; format: functional, organism-based
Escherichia coli [20] = assay: Antibacterial activity against Escherichia coli ATCC 25922 at 0.5 times MIC incubated for 18 hrs measured for 15 passages by CLSI based broth microdilution method; format: functional, organism-based
Escherichia coli [21] = assay: Disruption of membrane integrity in Escherichia coli ATCC 25922 assessed as membrane damage by measuring PI fluorescence at 2 times of MIC incubated for 1 hr by PI dye based flow cytometric analysis (reference value: 1.35%); format: functional
[22] = Selectivity index, ratio of MHC10 for human RBC to geometric mean of peptide MIC for gram positive bacteria; format: toxicity; settings: human red blood cells, read-out: Selectivity Index
Escherichia coli [23] = assay: Induction of outer membrane permeabilization in Escherichia coli ATCC 25922 measured up to 12 mins by NPN-dye based assay; format: organism-based
Escherichia coli [24] = assay: Ratio of antibacterial activity against Escherichia coli ATCC 25922 in presence of MgCl2 to antibacterial activity against Escherichia coli ATCC 25922; format: functional
Escherichia coli [25] = assay: Induction of membrane disruption in Escherichia coli ATCC 25922 assessed as fracture in membrane at 4 times of MIC after 2 hrs by SEM analysis; format: functional, organism-based
Escherichia coli [26] = assay: Antimicrobial activity against Escherichia coli ATCC 25922 at 1 mM preincubated for 6 hrs in presence of 2 ug/ml chymotrypsin and measured after 18 hrs by microplate reader analysis; format: functional, organism-based
Escherichia coli [27] = assay: Potentiation of rifampicin-induced antibacterial activity against Escherichia coli ATCC 25922 assessed as FICI after 18 hrs by checker board assay; format: functional
Escherichia coli [28] = assay: Ratio of antibacterial activity against Escherichia coli ATCC 25922 in presence of FeCl3 to antibacterial activity against Escherichia coli ATCC 25922; format: functional
Pseudomonas aeruginosa [29] = assay: Potentiation of polymyxin B-induced antibacterial activity against Pseudomonas aeruginosa ATCC 27853 assessed as FICI after 18 hrs by checker board assay; format: functional
Erythrocyte = assay: Hemolytic activity in human RBC measured after 1 hr by microplate reader analysis; format: ADME, cell-based
Escherichia coli [30] = assay: Induction of inner membrane permeabilization in Escherichia coli ATCC 43837 assessed as increase in ONPG release at 4 times of MIC by ONPG dye based assay; format: organism-based
Pseudomonas aeruginosa [31] = assay: Antibiofilm activity against Pseudomonas aeruginosa ATCC 27853 after 24 hrs by crystal violet staining based assay; format: functional, organism-based
Escherichia coli [32] = assay: Disruption of membrane integrity in Escherichia coli ATCC 25922 assessed as membrane damage by measuring PI fluorescence at 4 times of MIC incubated for 1 hr by PI dye based flow cytometric analysis (reference value: 1.35%); format: functional
Bacillus subtilis = assay: Antibacterial activity against Bacillus subtilis ATCC 23857 after 18 hrs by CLSI based broth microdilution method; format: functional; settings: ATCC 23857, 18 h
Pseudomonas aeruginosa [33] = assay: Potentiation of rifampicin-induced antibacterial activity against Pseudomonas aeruginosa ATCC 27853 assessed as FICI after 18 hrs by checker board assay; format: functional
Pseudomonas aeruginosa [34] = assay: Antibacterial activity against Pseudomonas aeruginosa ATCC 27853 after 18 hrs by CLSI based broth microdilution method; format: functional; settings: ATCC 27853, 18 h
Staphylococcus aureus [35] = assay: Ratio of antibacterial activity against Staphylococcus aureus ATCC 25923 in presence of NaCl to antibacterial activity against Staphylococcus aureus ATCC 25923; format: functional
Escherichia coli [36] = assay: Antibacterial activity against Escherichia coli ATCC 25922 after 18 hrs by CLSI based broth microdilution method; format: functional; settings: ATCC 25922, 18 h
Escherichia coli [37] = assay: Induction of inner membrane permeabilization in Escherichia coli ATCC 43837 assessed as increase in ONPG release at 1 to 2 times of MIC by ONPG dye based assay; format: organism-based
Pseudomonas aeruginosa [38] = assay: Antibiofilm activity against Pseudomonas aeruginosa ATCC 27853 at 0.25 to 2 times of MIC after 24 hrs by crystal violet staining based assay; format: functional, organism-based

Structure (SMILES) | MIC (Staphylococcus aureus [1]) [µM] | Activity (Escherichia coli [2]) | inhibition (Escherichia coli [3]) | Ratio (Escherichia coli [4]) | fractional inhibitory concentration index (FICI) (Klebsiella pneumoniae [5]) | Ratio (Escherichia coli [6]) | fractional inhibitory concentration index (FICI) (Escherichia coli [7]) | Ratio (Staphylococcus aureus [8]) | inhibition (Staphylococcus aureus [9]) | MIC (Escherichia coli [10]) [µM] | Activity (Escherichia coli [11]) | Activity (Escherichia coli [12]) | Activity (DNA) | MIC (Staphylococcus aureus [13]) [µM] | inhibition (Escherichia coli [14]) | fractional inhibitory concentration index (FICI) (Klebsiella pneumoniae [15]) | Ratio (Staphylococcus aureus [16]) | Activity (Escherichia coli [17]) | Ratio (Staphylococcus aureus [18]) | Activity (Escherichia coli [19]) | also measured
CCCCCCCCCC(=O)NCC(=O)N[C@@H](CC(C)C)C(=O)N[C@@H](CC(C)C)C(=O)N[C@H](CCCCN)C(=O)N[C@@H](CCCNC(=N)N)C(=O)N[C@H](C(=O)N[C@H](CCCCN)C(=O)N[C@H](C(=O)N[C@@H](CC(C)C)C(=O)N[C@@H](CC(C)C)C(N)=O)[C@@H](C)O)[C@@H](C)CC | 8 (≈ 10.5 µg/mL) | Active | Dose-dependent effect | 1 | 0.3125 | 2 - 4 | 0.3125 | 2 - 4 | Dose-dependent effect | 8 (≈ 10.5 µg/mL) | Dose-dependent effect | inactive | Dose-dependent effect | 8 (≈ 10.5 µg/mL) | inactive | 0.3125 | 2 - 4 | Active | 2 - 4 | Active | Activity (Escherichia coli [20]): Active; Activity (Escherichia coli [21]): 49.6%; selectivity ratio [22]: 8; Activity (Escherichia coli [23]): Dose-dependent effect; Ratio (Escherichia coli [24]): 2 - 4; Activity (Escherichia coli [25]): Active; Activity (Escherichia coli [26]): Active; fractional inhibitory concentration index (FICI) (Escherichia coli [27]): 0.1875; Ratio (Escherichia coli [28]): 2 - 4; fractional inhibitory concentration index (FICI) (Pseudomonas aeruginosa [29]): 0.125; MHC10 (Erythrocyte): 64 µM; Activity (Escherichia coli [30]): Active; inhibition (Pseudomonas aeruginosa [31]): Dose-dependent effect; Activity (Escherichia coli [32]): 75.9%; MIC (Bacillus subtilis): 8 µM (≈ 10.5 µg/mL); fractional inhibitory concentration index (FICI) (Pseudomonas aeruginosa [33]): 0.3125; MIC (Pseudomonas aeruginosa [34]): 8 µM (≈ 10.5 µg/mL); Ratio (Staphylococcus aureus [35]): 2 - 4; MIC (Escherichia coli [36]): 16 µM (≈ 20.9 µg/mL)
CCCCCCCCCCCC(=O)NCC(=O)N[C@@H](CC(C)C)C(=O)N[C@@H](CC(C)C)C(=O)N[C@H](CCCCN)C(=O)N[C@@H](CCCNC(=N)N)C(=O)N[C@H](C(=O)N[C@H](CCCCN)C(=O)N[C@H](C(=O)N[C@@H](CC(C)C)C(=O)N[C@@H](CC(C)C)C(N)=O)[C@@H](C)O)[C@@H](C)CC | 4 (≈ 5.34 µg/mL) | Active | Dose-dependent effect | 2 | 0.3125 | 2 - 4 | 0.1875 | 2 - 4 | Dose-dependent effect | 16 (≈ 21.4 µg/mL) | Dose-dependent effect | inactive | Dose-dependent effect | 16 (≈ 21.4 µg/mL) | Active | 0.5625 | 2 - 4 | Active | 2 - 4 | Active | Activity (Escherichia coli [37]): Active; Activity (Escherichia coli [20]): Active; Activity (Escherichia coli [21]): 60.8%; selectivity ratio [22]: 2.18; Activity (Escherichia coli [23]): Dose-dependent effect; Ratio (Escherichia coli [24]): 2 - 4; Activity (Escherichia coli [25]): Active; Activity (Escherichia coli [26]): Active; fractional inhibitory concentration index (FICI) (Escherichia coli [27]): 0.5625; Ratio (Escherichia coli [28]): 2 - 4; fractional inhibitory concentration index (FICI) (Pseudomonas aeruginosa [29]): 0.1875; MHC10 (Erythrocyte): 16 µM; Activity (Escherichia coli [30]): Active; inhibition (Pseudomonas aeruginosa [31]): Dose-dependent effect; Activity (Escherichia coli [32]): 94.7%; MIC (Bacillus subtilis): 2 µM (≈ 2.67 µg/mL); fractional inhibitory concentration index (FICI) (Pseudomonas aeruginosa [33]): 0.3125; MIC (Pseudomonas aeruginosa [34]): 16 µM (≈ 21.4 µg/mL); Ratio (Staphylococcus aureus [35]): 2 - 4; MIC (Escherichia coli [36]): 16 µM (≈ 21.4 µg/mL)
CCCCCCCC(=O)NCC(=O)N[C@@H](CC(C)C)C(=O)N[C@@H](CC(C)C)C(=O)N[C@H](CCCCN)C(=O)N[C@@H](CCCNC(=N)N)C(=O)N[C@H](C(=O)N[C@H](CCCCN)C(=O)N[C@H](C(=O)N[C@@H](CC(C)C)C(=O)N[C@@H](CC(C)C)C(N)=O)[C@@H](C)O)[C@@H](C)CC | 32 (≈ 41 µg/mL) | Active | Dose-dependent effect | 1 | 0.0625 | 2 - 4 | 0.1875 | 2 - 4 | Dose-dependent effect | 32 (≈ 41 µg/mL) | Dose-dependent effect | inactive | Dose-dependent effect | 64 (≈ 81.9 µg/mL) | Active | 0.0625 | 2 - 4 | Active | 2 - 4 | Active | Activity (Escherichia coli [20]): Active; inhibition (Pseudomonas aeruginosa [38]): Active; Activity (Escherichia coli [21]): 64.6%; selectivity ratio [22]: 15.4; Activity (Escherichia coli [23]): Dose-dependent effect; Ratio (Escherichia coli [24]): 2 - 4; Activity (Escherichia coli [25]): Active; Activity (Escherichia coli [26]): Active; fractional inhibitory concentration index (FICI) (Escherichia coli [27]): 0.0625; Ratio (Escherichia coli [28]): 2 - 4; fractional inhibitory concentration index (FICI) (Pseudomonas aeruginosa [29]): 0.1875; MHC10 (Erythrocyte): > 256 µM; Activity (Escherichia coli [30]): Active; inhibition (Pseudomonas aeruginosa [31]): Dose-dependent effect; Activity (Escherichia coli [32]): 70.8%; MIC (Bacillus subtilis): 4 µM (≈ 5.12 µg/mL); fractional inhibitory concentration index (FICI) (Pseudomonas aeruginosa [33]): 0.75; MIC (Pseudomonas aeruginosa [34]): 8 µM (≈ 10.2 µg/mL); Ratio (Staphylococcus aureus [35]): 2 - 4; MIC (Escherichia coli [36]): 64 µM (≈ 81.9 µg/mL)
